Experimental data reported in publication PMC3791449, “Mechanism of amyloid β−protein dimerization determined using single−molecule AFM force spectroscopy” (Scientific Reports, 2013).
Like-named read-outs stand apart in the source and are kept apart here.

Assays:
Aβ peptides = conditions: cited from earlier work
Text: Aberrant folding (misfolding) and aggregation of amyloid proteins are pathological hallmarks of a large class of neurodegenerative diseases, including Alzheimer's disease (AD) (reviewed in[1][2]). In AD, amyloid precursor proteins are sequentially cleaved by β−secretase and γ−secretase, producing the amyloid β−protein (Aβ)[3]. Aβ peptides contain several alloforms with varying sequences of amino acids, dependent on the cleavage sites of γ−secretase. […] Additional C−terminal modi ... || It is important to compare our data with the aggregation studies of similar Aβ peptide samples.

misfolded Aβ dimers = experiment: Single-molecule AFM force spectroscopy: rupture force of Aβ dimers; type: binding, human
Protocol: The cysteinyl−peptides were covalently immobilized on the tip and the surface via flexible tethers terminated with maleimide groups. […] Peptide aggregation was minimized by using a very low peptide concentration (20 nM) during the coupling reaction with the functionalized mica surface and the tips. Probing was performed by multiple approach−retraction cycles over various spots of the mica surface.
Figures 1−b1 and 1−b2 show typical force curves for non−specific and specific interactions, respectively. Specific rupture events were characterized by the appearance of the event indicated with an arrow in Fig. 1−b2. The rupture peak appears at the distance defined by the extension of the flexible linkers (polyethylene glycol, PEG and maleimide silatrane, MAS) and the segments of the peptides not involved in dimer formation (see Supplementary Methods for specifics). The force−distance curves, as shown in Fig. 1−b2, were analyzed with worm−like chain (WLC) fitting to extract parameters including the rupture force and the contour length. […] The measurements for the [VPV]Aβ40 mutant performed at similar conditions (ionic strength, loading rate, etc.) are shown in Fig. 1d. […] The rupture forces increase with increasing apparent loading rates (Supplementary Fig. S1).
All cysteinyl−Aβ peptides were synthesized using 9−fluorenylmethoxycarbonyl (FMOC) chemistry and purified by reverse phase high performance liquid chromatography (RP−HPLC). The identity and purity (usually > 97%) of the peptides were confirmed by amino acid analysis followed by mass spectrometry and RP−HPLC. Functionalization of AFM tips and mica substrates were prepared according to previously published procedures. Briefly, 20 nM Aβ monomers were immobilized on mica functionalized with aminopropyl silatrane (APS) via PEG 3400 tethers and on AFM tips through maleimide silatrane (MAS). For DFS study, the tip retraction speeds ranged from 100 nm/s to 4000 nm/s. The dwell time was set at 0.3 s when retraction speed reached 1000 nm/s and above. Force curves with rupture event were subject to WLC analysis, as shown below. [drawing 1] Rupture force distributions were fitted with a probability density function: [drawing 2] Dynamic force spectra were fitted with Bell−Evans model[21]: [drawing 3] The energy profiles were reconstructed according to previous papers, using the equation below. [drawing 4] Positions of interacting segments of Aβ monomers within dimers were estimated by subtracting from the measured contour lengths the lengths of all linkers and the distance between N−termini of monomers (see Fig. 1a). The contour length of PEG was estimated with the following equation[28]: [drawing 5] Where Lc(F) is the contour length, Ns is the average number of monomers, Lplanar is the length of monomers with planar conformation, Lhelical is the length of monomers with helical conformation, ΔG(F) is the free energy difference at zero appling force. The Ns is 77 ± 10 for 3400 Da PEG. The Lplanar and Lhelical are 3.58 Å and 2.8 Å, respectively. The ΔG(F) is fixed at 3 kBT. The contour length of PEG was thus estimated to be 22.0 ± 0.9 nm. All error bars represent SEM. Detailed methods can be found in Supplementary Information.
A 50 mM 1−(3−aminopropyl) silatrane (APS) stock solution was prepared by dissolving the APS powder in deionized (DI) water. The 1.67 mM stock solution of maleimide−polyethylene glycol−succinimidyl valerate (MAL−PEG−SVA; 3.4 kDa Laysan Bio Inc, Arab, AL) was prepared in DMSO (Sigma−Aldrich Inc.) and stored at −20°C. The 10 mM Tris (2−carboxyethyl) phosphine (TCEP) hydrochloride (Hampton Research Inc.) and the 2.94 mM solution of maleimide silatrane (MAS) were prepared in DI water and stored at −20°C. A 10 mM stock solution of β−mercaptoethanol was prepared in 10 mM sodium phosphate, pH 7.4 (“phosphate buffer”) and kept at 4°C. Unless otherwise specified, other reagents used in the experiments were of analytical grade from Sigma−Aldrich. […]

[1] = cited from earlier work
Text: Aberrant folding (misfolding) and aggregation of amyloid proteins are pathological hallmarks of a large class of neurodegenerative diseases, including Alzheimer's disease (AD) (reviewed in[1][2]). In AD, amyloid precursor proteins are sequentially cleaved by β−secretase and γ−secretase, producing the amyloid β−protein (Aβ)[3]. Aβ peptides contain several alloforms with varying sequences of amino acids, dependent on the cleavage sites of γ−secretase.

Aβ42 dimers = conditions: cited from earlier work
Text: We have developed a single−molecule atomic force microscopy (SMFS) approach enabling us to probe and characterize the interactions of the peptides and proteins in transient misfolded conformations. In this approach, the protein is end−immobilized on the AFM tip and substrate, allowing us to measure the interprotein interactions at the single−molecule level. The dynamics force spectroscopy (DFS) approach has been quite informative with respect to the lifetimes of transiently formed misfolded dimers (reviewed in[16]).

[2] = loading rates of 5000−7000 pN/s, ± SEM, total data 170 (Aβ40), 280 ([VPV]Aβ40)
[3] = Supplementary Figs. S3b-S5b, similar analysis, loading rate not given

Aβ40: alloform of human amyloid β−protein; cysteinyl−Aβ peptide, Cys residue placed at the N−terminus
aggregation properties (Aβ peptides): similar
oligomerization pattern (Aβ peptides): rapid equilibrium with coexisting monomers, dimers, trimers, and tetramers
most probable rupture force (misfolded Aβ dimers; loading rate 6215 pN/s, probability density function fit): 57.0 pN
most probable rupture force (misfolded Aβ dimers; [2]): 63.4 ± 3.2 pN
most probable rupture force (misfolded Aβ dimers; loading rates of 5000−7000 pN/s, ± SEM, total data 170 (Aβ40), 280 ([VPV]Aβ40), listed as Αβ40): 63.4 pN
rupture force alignment in the force versus contour length plot (misfolded Aβ dimers; scatter plot Fig. 3c, horizontal line, loading rates of 5000−7000 pN/s): ~ 60 pN

[VPV]Aβ40: Aβ40 mutant with VPV substitutions (Gly33Val−Val36Pro−Gly38Val); cysteinyl−peptide
toxicity of oligomers / aggregates [1]: elevated neurotoxicity
most probable rupture force, increase vs Αβ40 dimers (misfolded Aβ dimers; [VPV]Αβ40 vs Αβ40 (79.3 vs 63.4 pN), loading rates of 5000−7000 pN/s): 25%
most probable rupture force (misfolded Aβ dimers; loading rate 6068 pN/s, probability density function fit): 83.6 pN
most probable rupture force (misfolded Aβ dimers; [2]): 79.3 ± 1.5 pN
most probable rupture force (misfolded Aβ dimers; loading rates of 5000−7000 pN/s, ± SEM, total data 170 (Aβ40), 280 ([VPV]Aβ40), listed as [VPV]Αβ40): 79.3 pN

[VPV]Aβ42: Aβ42 with VPV substitutions (Gly33Val−Val36Pro−Gly38Val); cysteinyl−peptide
most probable rupture force (misfolded Aβ dimers; [3]): 67.9 ± 1.0 pN

Aβ42: alloform of human amyloid β−protein with two additional C−terminal residues; cysteinyl−peptide
oligomerization pattern (Aβ peptides): prefers to form a pentamer/hexamer structure (paranucleus)
toxicity compared with other alloforms [1]: appears to be the most toxic
most probable rupture force (misfolded Aβ dimers; [3]): 66.2 ± 0.8 pN
segments involved in dimer formation (Aβ42 dimers; in the absence of Cu^2+ cations): formed dimers via the C−terminal segments
segments involved in dimer formation (Aβ42 dimers; with Cu^2+ cations): dimer formation involves the N−terminal segments
